Test results reported in patent publication US10800791B2, “Triazole ACC inhibitors and uses thereof” (Gilead Apollo, LLC, priority 2015, dated 2020).
In brackets after ≈: the same amount, converted by molar mass. Read-outs that look alike come from different tables or passages of the source.

Key:
C. parapsilosis = test: Antifungal Activity Assay (broth microtiter MIC), C. parapsilosis; assay type: cell-based, Candida parapsilosis; settings: Lodderomyces parapsilosis, ATCC22019, 48 h
In short: (§1)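 CLSI M27-A3 broth microdilution in RPMI 1640+MOPS, final inoculum 2.5×10^3 CFU/mL from overnight Sabouraud cultures grown at 35 °C. MIC read visually at 48 h against growth control.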

[1] = tested on: Fusarium moniliforme (Fm); test: Growth inhibition assay of fungal pathogens, Fm; assay type: cell-based; settings: for IC90: Fusarium verticillioides, 48 h, read-out: Concentration at 90% Inhibition Fm
In short: (§2)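 Spores diluted in 17% V8 liquid media and incubated with compound at final 50, 10, 2 ppm or 2, 0.4, 0.08 ppm (2% DMSO). OD600 plus visual ratings at 24 and 48 hours, blank-subtracted; percent growth inhibition from 48 h readings relative to 2% DMSO control.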

Septoria tritici (St) = test: Growth inhibition assay of fungal pathogens, St; assay type: cell-based; settings: Zymoseptoria tritici, 48 h
In short: as §2

C. albicans = test: Antifungal Activity Assay (broth microtiter MIC), C. albicans; assay type: cell-based, Candida albicans; settings: Candida albicans, ATCC90028, 48 h
In short: as §1

[2] = tested on: Phytophthora capsici (Pc); test: Growth inhibition assay of fungal pathogens, Pc; assay type: cell-based; settings: 48 h
In short: as §2

C. krusei = test: Antifungal Activity Assay (broth microtiter MIC), C. krusei; assay type: cell-based, Candida krusei; settings: Pichia kudriavzevii, ATCC6258, 48 h
In short: as §1

[3] = tested on: Collectotrichum graminicola (Cg); test: Growth inhibition assay of fungal pathogens, Cg; assay type: cell-based; settings: 48 h
In short: as §2

Diplodia maydis (Dm) = test: Growth inhibition assay of fungal pathogens, Dm; assay type: cell-based; settings: Stenocarpella maydis, 48 h
In short: as §2

fungal (fACC2) = fungal (fACC2) (UniProt Q00955); settings: read-out: fACC2 (in vitro ACC2 Inhibition Assay, IC50), ADP-Glo, 5 nM ACC2, 20 μM ATP, 20 μM acetyl-CoA
Chain of fungal (fACC2) (Q00955 whole entry): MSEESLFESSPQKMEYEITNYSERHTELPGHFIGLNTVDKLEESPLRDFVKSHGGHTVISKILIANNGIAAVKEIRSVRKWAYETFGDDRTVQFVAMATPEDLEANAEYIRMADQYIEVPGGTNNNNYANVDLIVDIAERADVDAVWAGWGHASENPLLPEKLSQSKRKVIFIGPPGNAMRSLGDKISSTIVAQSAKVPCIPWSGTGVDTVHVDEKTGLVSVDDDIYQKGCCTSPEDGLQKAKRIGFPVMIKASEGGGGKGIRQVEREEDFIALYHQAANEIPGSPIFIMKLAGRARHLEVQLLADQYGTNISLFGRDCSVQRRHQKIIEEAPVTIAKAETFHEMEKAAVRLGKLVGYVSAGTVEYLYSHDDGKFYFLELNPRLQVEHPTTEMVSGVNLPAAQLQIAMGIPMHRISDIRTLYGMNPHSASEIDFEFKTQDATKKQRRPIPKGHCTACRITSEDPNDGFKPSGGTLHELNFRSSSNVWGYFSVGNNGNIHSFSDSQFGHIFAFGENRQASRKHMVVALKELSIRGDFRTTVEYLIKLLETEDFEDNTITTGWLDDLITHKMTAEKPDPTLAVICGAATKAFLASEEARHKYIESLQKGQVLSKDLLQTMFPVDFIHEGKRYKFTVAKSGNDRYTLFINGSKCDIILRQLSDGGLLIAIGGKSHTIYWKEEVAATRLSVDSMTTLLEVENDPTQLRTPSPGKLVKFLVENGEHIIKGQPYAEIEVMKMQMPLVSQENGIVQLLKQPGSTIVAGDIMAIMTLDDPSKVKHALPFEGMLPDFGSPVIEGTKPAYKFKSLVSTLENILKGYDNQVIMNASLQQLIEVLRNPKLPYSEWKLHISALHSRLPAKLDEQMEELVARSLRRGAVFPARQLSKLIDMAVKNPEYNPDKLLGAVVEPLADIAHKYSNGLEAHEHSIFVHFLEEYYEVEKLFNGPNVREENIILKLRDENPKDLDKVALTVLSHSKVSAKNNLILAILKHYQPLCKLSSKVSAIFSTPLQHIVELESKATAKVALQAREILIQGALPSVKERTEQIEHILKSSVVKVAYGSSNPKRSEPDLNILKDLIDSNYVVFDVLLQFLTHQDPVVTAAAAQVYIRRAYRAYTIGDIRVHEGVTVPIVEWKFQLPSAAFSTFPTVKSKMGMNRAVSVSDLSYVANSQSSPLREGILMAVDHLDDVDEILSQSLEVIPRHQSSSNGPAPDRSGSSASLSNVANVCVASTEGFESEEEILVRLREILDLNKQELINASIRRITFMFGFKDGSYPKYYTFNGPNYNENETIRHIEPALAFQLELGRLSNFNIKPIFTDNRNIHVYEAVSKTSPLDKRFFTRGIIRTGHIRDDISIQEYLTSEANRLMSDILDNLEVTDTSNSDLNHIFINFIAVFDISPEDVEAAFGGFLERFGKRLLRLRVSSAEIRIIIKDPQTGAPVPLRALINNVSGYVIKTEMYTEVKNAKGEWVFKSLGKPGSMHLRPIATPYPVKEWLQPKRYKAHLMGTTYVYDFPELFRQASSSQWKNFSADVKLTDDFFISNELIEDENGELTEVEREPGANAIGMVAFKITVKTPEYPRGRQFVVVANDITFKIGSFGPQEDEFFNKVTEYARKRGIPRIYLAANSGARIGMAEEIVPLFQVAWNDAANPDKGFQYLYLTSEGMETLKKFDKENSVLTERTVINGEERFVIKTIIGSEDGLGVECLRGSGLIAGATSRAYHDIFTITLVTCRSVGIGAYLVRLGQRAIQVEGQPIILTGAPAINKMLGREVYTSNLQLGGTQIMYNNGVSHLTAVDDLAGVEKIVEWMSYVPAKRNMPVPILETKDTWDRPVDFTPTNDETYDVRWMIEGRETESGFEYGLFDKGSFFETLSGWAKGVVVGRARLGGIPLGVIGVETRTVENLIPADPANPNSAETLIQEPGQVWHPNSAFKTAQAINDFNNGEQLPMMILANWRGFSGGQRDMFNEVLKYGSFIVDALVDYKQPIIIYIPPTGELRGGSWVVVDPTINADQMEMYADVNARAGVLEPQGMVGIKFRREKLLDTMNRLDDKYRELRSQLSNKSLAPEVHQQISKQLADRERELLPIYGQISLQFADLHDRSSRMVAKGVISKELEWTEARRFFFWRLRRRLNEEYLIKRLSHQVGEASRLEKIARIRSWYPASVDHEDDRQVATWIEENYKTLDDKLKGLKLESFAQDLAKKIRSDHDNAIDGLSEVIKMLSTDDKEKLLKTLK

Botrtyis cinerea (Bc) = test: Growth inhibition assay of fungal pathogens, Bc; assay type: cell-based; settings: 48 h
In short: as §2

[4] = tested on: Fusarium virguliforme (Fv); test: Growth inhibition assay of fungal pathogens, Fv; assay type: cell-based; settings: 48 h
In short: as §2

[5] = Fusarium moniliforme, growth inhibition at 48 hours vs 2% DMSO control

Question: With `COc1ccc(F)cc1[C@H](Cn1c(=O)n(C(C)(C)C(=O)NC(C)C)c(=O)c2c(C)c(-n3nccn3)sc21)OC[C@@H](C)O` [Compound I-45, 2-(1-((R)-2-(5-fluoro-2-methoxyphenyl)-2-((R)-2-hydroxypropoxy)ethyl)-5-methyl-2,4-dioxo-6-(2H-1,2,3-triazol-2-yl)-1,4-dihydro-thieno[2,3-d]pyrimidin-3(2H)-yl)-N-isopropyl-2-methylpropanamide] as the compound, how does the MIC (C. parapsilosis; read-out: MIC, C. parapsilosis ATCC 22019, Table 3a, 3 replicates, MIC recorded at 48 h) read?
Answer: Its MIC is 0.25 to 1 µg/mL (≈ 0.415 to 1.66 µM).

Question: And the MIC (C. parapsilosis; read-out: MIC, C. parapsilosis ATCC 22019, Table 3b (additional results), 3 replicates, MIC recorded at 48 h)?
Answer: Its MIC is 1.01 to 2 µg/mL (≈ 1.68 to 3.32 µM).

Question: And the “Concentration at 90% Inhibition Fm” value [1, 5]?
Answer: The value was “AA (compound concentration of 0.08 ppm at 90% inhibition of fungal pathogens)”.

Question: And the IC90 [1]?
Answer: Its IC90 is 0.08 µg/mL (≈ 0.133 µM).

Question: What about the IC90 (Septoria tritici (St); read-out: Concentration at 90% Inhibition St, Septoria tritici, growth inhibition at 48 hours vs 2% DMSO control) of the same compound?
Answer: The IC90 was 2 µg/mL (≈ 3.32 µM).

Question: What about the IC90 (Septoria tritici (St); read-out: Concentration at 90% Inhibition St, Septoria tritici, growth inhibition vs 2% DMSO control at 48 hours) of the same compound?
Answer: Its IC90 is 10 µg/mL (≈ 16.6 µM).

Question: And the MIC (C. albicans; read-out: MIC, C. albicans ATCC 90028, Table 3a, 3 replicates, MIC recorded at 48 h)?
Answer: The MIC was 0.25 to 1 µg/mL (≈ 0.415 to 1.66 µM).

Question: And the MIC (C. albicans; read-out: MIC, C. albicans ATCC 90028, Table 3b (additional results), 3 replicates, MIC recorded at 48 h)?
Answer: The MIC was 0.25 to 1 µg/mL (≈ 0.415 to 1.66 µM).

Question: What about the IC90 ([2]; read-out: Concentration at 90% Inhibition Pc, Phytophthora capsici, growth inhibition at 48 hours vs 2% DMSO control) of the same compound?
Answer: The IC90 was 2 µg/mL (≈ 3.32 µM).

Question: What about the IC90 ([2]; read-out: Concentration at 90% Inhibition Pc, Phytophthora capsici, growth inhibition vs 2% DMSO control at 48 hours) of the same compound?
Answer: Its IC90 is 10 µg/mL (≈ 16.6 µM).

Question: And the MIC (C. krusei; read-out: MIC, C. krusei ATCC 6258, Table 3a, 3 replicates, MIC recorded at 48 h)?
Answer: Its MIC is 0.25 to 1 µg/mL (≈ 0.415 to 1.66 µM).

Question: What about the MIC (C. krusei; read-out: MIC, C. krusei ATCC 6258, Table 3b (additional results), 3 replicates, MIC recorded at 48 h) of the same compound?
Answer: Its MIC is 1.01 to 2 µg/mL (≈ 1.68 to 3.32 µM).

Question: What about the IC90 ([3]; read-out: Concentration at 90% Inhibition Cg, Collectotrichum graminicola, growth inhibition at 48 hours vs 2% DMSO control) of the same compound?
Answer: Its IC90 is 0.4 µg/mL (≈ 0.664 µM).

Question: And the IC90 ([3]; read-out: Concentration at 90% Inhibition Cg, Collectotrichum graminicola, growth inhibition vs 2% DMSO control at 48 hours)?
Answer: Its IC90 is 0.4 µg/mL (≈ 0.664 µM).

Question: And the IC90 (Diplodia maydis (Dm); read-out: Concentration at 90% Inhibition Dm, Diplodia maydis, growth inhibition at 48 hours vs 2% DMSO control)?
Answer: Its IC90 is 0.4 µg/mL (≈ 0.664 µM).

Question: And the IC90 (Diplodia maydis (Dm); read-out: Concentration at 90% Inhibition Dm, Diplodia maydis, growth inhibition vs 2% DMSO control at 48 hours)?
Answer: Its IC90 is 0.4 µg/mL (≈ 0.664 µM).

Question: What about the IC50 (fungal (fACC2); Table 2a) of the same compound?
Answer: Its IC50 is 1 to 5 nM.

Question: What about the IC50 (fungal (fACC2); Table 2b, additional results) of the same compound?
Answer: Its IC50 is 1 to 5 nM.

Question: What about the IC90 (Botrtyis cinerea (Bc); read-out: Concentration at 90% Inhibition Bc, Botrtyis cinerea, growth inhibition at 48 hours vs 2% DMSO control) of the same compound?
Answer: The IC90 was 2 µg/mL (≈ 3.32 µM).

Question: And the IC90 (Botrtyis cinerea (Bc); read-out: Concentration at 90% Inhibition Bc, Botrtyis cinerea, growth inhibition vs 2% DMSO control at 48 hours)?
Answer: Its IC90 is 2 µg/mL (≈ 3.32 µM).

Question: What about the IC90 ([4]; read-out: Concentration at 90% Inhibition Fv, Fusarium virguliforme, growth inhibition at 48 hours vs 2% DMSO control) of the same compound?
Answer: Its IC90 is 0.4 µg/mL (≈ 0.664 µM).

Question: And the IC90 ([4]; read-out: Concentration at 90% Inhibition Fv, Fusarium virguliforme, growth inhibition vs 2% DMSO control at 48 hours)?
Answer: Its IC90 is 0.4 µg/mL (≈ 0.664 µM).

Question: For `COc1ccc(F)cc1[C@H](Cn1c(=O)n(C(C)(C)C(=O)N2CCCC2)c(=O)c2c(C)c(-n3nccn3)sc21)OC[C@@H](C)O` [Compound I-46, 1-((R)-2-(5-fluoro-2-methoxyphenyl)-2-((R)-2-hydroxypropoxy)ethyl)-5-methyl-3-(2-methyl-1-oxo-1-(pyrrolidin-1-yl)propan-2-yl)-6-(2H-1,2,3-triazol-2-yl)thieno[2,3-d]pyrimidine-2,4(1H,3H)-dione], which MIC (C. parapsilosis; Table 3a, ATCC 22019, 3 replicates, MIC recorded at 48 h, read-out: MIC, C. parapsilosis ATCC 22019) is on record?
Answer: Its MIC is 1.1 to 2 µg/mL (≈ 1.79 to 3.25 µM).

Question: And the MIC (C. parapsilosis; Table 3b (additional results), ATCC 22019, 3 replicates, MIC recorded at 48 h, read-out: MIC, C. parapsilosis ATCC 22019)?
Answer: The MIC was 1.01 to 2 µg/mL (≈ 1.64 to 3.25 µM).

Question: And the IC90 [1, 5]?
Answer: Its IC90 is 0.08 µg/mL (≈ 0.13 µM).

Question: And the IC90 ([1]; Fusarium moniliforme, growth inhibition vs 2% DMSO control at 48 hours)?
Answer: The IC90 was 0.08 µg/mL (≈ 0.13 µM).

Question: What about the IC90 (Septoria tritici (St); Septoria tritici, growth inhibition at 48 hours vs 2% DMSO control, read-out: Concentration at 90% Inhibition St) of the same compound?
Answer: The IC90 was > 50 µg/mL.

Question: What about the IC90 (Septoria tritici (St); Septoria tritici, growth inhibition vs 2% DMSO control at 48 hours, read-out: Concentration at 90% Inhibition St) of the same compound?
Answer: The IC90 was > 50 µg/mL.

Question: And the MIC (C. albicans; Table 3a, ATCC 90028, 3 replicates, MIC recorded at 48 h, read-out: MIC, C. albicans ATCC 90028)?
Answer: The MIC was 0.25 to 1 µg/mL (≈ 0.407 to 1.63 µM).

Question: What about the MIC (C. albicans; Table 3b (additional results), ATCC 90028, 3 replicates, MIC recorded at 48 h, read-out: MIC, C. albicans ATCC 90028) of the same compound?
Answer: Its MIC is 0.25 to 1 µg/mL (≈ 0.407 to 1.63 µM).

Question: What about the IC90 ([2]; growth inhibition at 48 hours vs 2% DMSO control, read-out: Concentration at 90% Inhibition Pc) of the same compound?
Answer: The IC90 was > 50 µg/mL.

Question: What about the IC90 ([2]; growth inhibition vs 2% DMSO control at 48 hours, read-out: Concentration at 90% Inhibition Pc) of the same compound?
Answer: The IC90 was > 50 µg/mL.

Question: And the MIC (C. krusei; Table 3a, ATCC 6258, 3 replicates, MIC recorded at 48 h, read-out: MIC, C. krusei ATCC 6258)?
Answer: The MIC was 0.25 to 1 µg/mL (≈ 0.407 to 1.63 µM).

Question: What about the MIC (C. krusei; Table 3b (additional results), ATCC 6258, 3 replicates, MIC recorded at 48 h, read-out: MIC, C. krusei ATCC 6258) of the same compound?
Answer: The MIC was 2.01 to 4 µg/mL (≈ 3.27 to 6.51 µM).

Question: And the IC90 ([3]; Collectotrichum graminicola, growth inhibition at 48 hours vs 2% DMSO control, read-out: Concentration at 90% Inhibition Cg)?
Answer: Its IC90 is 0.4 µg/mL (≈ 0.651 µM).

Question: What about the IC90 ([3]; Collectotrichum graminicola, growth inhibition vs 2% DMSO control at 48 hours, read-out: Concentration at 90% Inhibition Cg) of the same compound?
Answer: Its IC90 is 0.4 µg/mL (≈ 0.651 µM).

Question: What about the IC90 (Diplodia maydis (Dm); Diplodia maydis, growth inhibition at 48 hours vs 2% DMSO control, read-out: Concentration at 90% Inhibition Dm) of the same compound?
Answer: The IC90 was 2 µg/mL (≈ 3.25 µM).

Question: What about the IC90 (Diplodia maydis (Dm); Diplodia maydis, growth inhibition vs 2% DMSO control at 48 hours, read-out: Concentration at 90% Inhibition Dm) of the same compound?
Answer: Its IC90 is 2 µg/mL (≈ 3.25 µM).

Question: And the IC50 (fungal (fACC2); Table 2a)?
Answer: Its IC50 is 1 to 5 nM.

Question: What about the IC50 (fungal (fACC2); Table 2b, additional results) of the same compound?
Answer: The IC50 was 1 to 5 nM.

Question: And the IC90 (Botrtyis cinerea (Bc); Botrtyis cinerea, growth inhibition at 48 hours vs 2% DMSO control, read-out: Concentration at 90% Inhibition Bc)?
Answer: Its IC90 is 2 µg/mL (≈ 3.25 µM).

Question: What about the IC90 (Botrtyis cinerea (Bc); Botrtyis cinerea, growth inhibition vs 2% DMSO control at 48 hours, read-out: Concentration at 90% Inhibition Bc) of the same compound?
Answer: Its IC90 is 2 µg/mL (≈ 3.25 µM).

Question: What about the IC90 ([4]; growth inhibition at 48 hours vs 2% DMSO control, read-out: Concentration at 90% Inhibition Fv) of the same compound?
Answer: The IC90 was 2 µg/mL (≈ 3.25 µM).

Question: And the IC90 ([4]; growth inhibition vs 2% DMSO control at 48 hours, read-out: Concentration at 90% Inhibition Fv)?
Answer: The IC90 was 2 µg/mL (≈ 3.25 µM).
